# In article PMC5218480 (PLoS ONE, 2017):
# Test system: MV-4-11 cells
# Experiment: Gene expression microarray analysis (Affymetrix PrimeView) and GSEA
# Format: cell-based, human
# Parameters: RFU PODN (11730768_x_at) / Fold change /veh PODN (11730768_x_at) / RFU LINC00158 (11744669_a_at) / Fold change /veh LINC00158 (11744669_a_at) / RFU DUSP10 (11751237_a_at) / Fold change /veh DUSP10 (11751237_a_at) / RFU ID3 (11757404_x_at) / Fold change /veh ID3 (11757404_x_at) / RFU PLEKHG5 (11737974_s_at) / Fold change /veh PLEKHG5 (11737974_s_at) / RFU LRRC4B (11730491_at) / Fold change /veh LRRC4B (11730491_at) / RFU GIMAP4 (11747438_a_at) / Fold change /veh GIMAP4 (11747438_a_at) / RFU KRT8 (11758183_x_at) / Fold change /veh KRT8 (11758183_x_at) / RFU CNN1 (11734310_a_at) / Fold change /veh CNN1 (11734310_a_at) / RFU VPS37D (11726825_at) / Fold change /veh VPS37D (11726825_at) / RFU C10orf10 (11716522_x_at) / Fold change /veh C10orf10 (11716522_x_at) / RFU KIR2DL2 /// KIR2DL4 /// KIR2DL5A /// KIR2DL5B /// KIR2DS1 /// KIR2DS2 /// KIR2DS3 /// KIR2DS4 /// KIR3DL3 /// KIR3DL3 /// KIR3DS1 (11738374_at) / Fold change /veh KIR2DL2 /// KIR2DL4 /// KIR2DL5A /// KIR2DL5B /// KIR2DS1 /// KIR2DS2 /// KIR2DS3 /// KIR2DS4 /// KIR3DL3 /// KIR3DL3 /// KIR3DS1 (11738374_at) / RFU C1QL1 (11718748_at) / Fold change /veh C1QL1 (11718748_at) / RFU TMPRSS4 (11747572_a_at) / Fold change /veh TMPRSS4 (11747572_a_at) / RFU HAMP (11756126_x_at) / Fold change /veh HAMP (11756126_x_at) / RFU RNFT2 (11725882_a_at) / Fold change /veh RNFT2 (11725882_a_at) / RFU NR4A2 (11747474_a_at) / Fold change /veh NR4A2 (11747474_a_at) / RFU ABCC12 (11746883_a_at) / Fold change /veh ABCC12 (11746883_a_at) / RFU TMEM136 (11760407_x_at) / Fold change /veh TMEM136 (11760407_x_at) / RFU CLDN22 /// WWC2 (11732394_at) / Fold change /veh CLDN22 /// WWC2 (11732394_at) / RFU HLA-DPB1 (11760878_x_at) / Fold change /veh HLA-DPB1 (11760878_x_at) / RFU SPINT1 (11716480_a_at) / Fold change /veh SPINT1 (11716480_a_at) / RFU GAP43 (11754022_s_at) / Fold change /veh GAP43 (11754022_s_at) / RFU A4GNT (11735810_at) / Fold change /veh A4GNT (11735810_at) / RFU PRB3 (11715151_x_at) / Fold change /veh PRB3 (11715151_x_at) / RFU TUBB4B (11761932_at) / Fold change /veh TUBB4B (11761932_at) / RFU CAPN14 (11732068_a_at) / Fold change /veh CAPN14 (11732068_a_at) / RFU TMCC2 (11721928_a_at) / Fold change /veh TMCC2 (11721928_a_at) / RFU IRGQ (11745062_a_at) / Fold change /veh IRGQ (11745062_a_at) / RFU FAM174B (11720279_a_at) / Fold change /veh FAM174B (11720279_a_at) / RFU TMPRSS4 (11748680_a_at) / Fold change /veh TMPRSS4 (11748680_a_at) / RFU FAM212B (11763350_a_at) / Fold change /veh FAM212B (11763350_a_at) / RFU PLEKHG5 (11743358_a_at) / Fold change /veh PLEKHG5 (11743358_a_at) / RFU ZSCAN30 (11745921_a_at) / Fold change /veh ZSCAN30 (11745921_a_at) / RFU CMKLR1 (11741424_a_at) / Fold change /veh CMKLR1 (11741424_a_at) / RFU LOC101060620 /// MAPK8IP1 (11723275_at) / Fold change /veh LOC101060620 /// MAPK8IP1 (11723275_at) / RFU SPTSSB (11747773_x_at) / Fold change /veh SPTSSB (11747773_x_at) / RFU PRSS12 (11739890_at) / Fold change /veh PRSS12 (11739890_at) / RFU BIN1 (11741810_x_at) / Fold change /veh BIN1 (11741810_x_at) / RFU WNT11 (11732464_a_at) / Fold change /veh WNT11 (11732464_a_at) / RFU C10orf10 (11716521_a_at) / Fold change /veh C10orf10 (11716521_a_at) / RFU C5orf56 (11738089_at) / Fold change /veh C5orf56 (11738089_at) / RFU CYB561 (11721691_x_at) / Fold change /veh CYB561 (11721691_x_at) / RFU ANKRD19P (11752326_a_at) / Fold change /veh ANKRD19P (11752326_a_at) / RFU OR2T12 /// OR2T33 /// OR2T8 (11738714_s_at) / Fold change /veh OR2T12 /// OR2T33 /// OR2T8 (11738714_s_at) / RFU VCAN (11748164_a_at) / Fold change /veh VCAN (11748164_a_at) / RFU JSRP1 (11732532_at) / Fold change /veh JSRP1 (11732532_at) / RFU KRTAP10-11 (11738290_x_at) / Fold change /veh KRTAP10-11 (11738290_x_at) / RFU MYO3A (11730013_a_at) / Fold change /veh MYO3A (11730013_a_at) / RFU EBF3 (11725865_a_at) / Fold change /veh EBF3 (11725865_a_at) / RFU CAMK2N1 (11719241_x_at) / Fold change /veh CAMK2N1 (11719241_x_at) / RFU C5orf56 (11738088_a_at) / Fold change /veh C5orf56 (11738088_a_at) / RFU OLFML3 (11715873_a_at) / Fold change /veh OLFML3 (11715873_a_at) / RFU LOC100653217 /// NTM (11731650_a_at) / Fold change /veh LOC100653217 /// NTM (11731650_a_at) / RFU MAPK11 (11762145_a_at) / Fold change /veh MAPK11 (11762145_a_at) / RFU FIZ1 (11724087_x_at) / Fold change /veh FIZ1 (11724087_x_at) / RFU OASL (11726364_x_at) / Fold change /veh OASL (11726364_x_at) / RFU SOX15 (11748057_x_at) / Fold change /veh SOX15 (11748057_x_at) / RFU CD79A (11719716_a_at) / Fold change /veh CD79A (11719716_a_at) / RFU HIST1H1D (11736915_at) / Fold change /veh HIST1H1D (11736915_at) / RFU CASKIN2 (11723855_a_at) / Fold change /veh CASKIN2 (11723855_a_at) / RFU LOC730098 (11760151_x_at) / Fold change /veh LOC730098 (11760151_x_at) / RFU OR4N2 (11742367_at) / Fold change /veh OR4N2 (11742367_at) / RFU PRRT2 (11749266_a_at) / Fold change /veh PRRT2 (11749266_a_at) / RFU SNX32 (11753110_a_at) / Fold change /veh SNX32 (11753110_a_at) / RFU CDHR5 (11726645_a_at) / Fold change /veh CDHR5 (11726645_a_at) / RFU RCAN1 (11760418_a_at) / Fold change /veh RCAN1 (11760418_a_at) / RFU FAM167A (11723789_a_at) / Fold change /veh FAM167A (11723789_a_at) / RFU FAM26E (11764081_at) / Fold change /veh FAM26E (11764081_at) / RFU ISYNA1 (11749810_s_at) / Fold change /veh ISYNA1 (11749810_s_at) / RFU ACY1 (11761880_at) / Fold change /veh ACY1 (11761880_at) / RFU 11764098_at / Fold change /veh 11764098_at / RFU SAMD14 (11745864_x_at) / Fold change /veh SAMD14 (11745864_x_at) / RFU NPB (11741838_a_at) / Fold change /veh NPB (11741838_a_at) / RFU TMPRSS6 (11731388_a_at) / Fold change /veh TMPRSS6 (11731388_a_at) / RFU KRTAP10-2 (11738614_at) / Fold change /veh KRTAP10-2 (11738614_at) / RFU ARHGAP8 /// PRR5-ARHGAP8 (11727945_x_at) / Fold change /veh ARHGAP8 /// PRR5-ARHGAP8 (11727945_x_at) / RFU KRTAP5-7 /// NADSYN1 (11734609_at) / Fold change /veh KRTAP5-7 /// NADSYN1 (11734609_at) / RFU RASL12 (11751679_a_at) / Fold change /veh RASL12 (11751679_a_at) / RFU CDKN2B (11736163_a_at) / Fold change /veh CDKN2B (11736163_a_at) / RFU PRF1 (11729649_at) / Fold change /veh PRF1 (11729649_at) / RFU, ZNF638 /// ZNF638-IT1 / Fold change vs veh, ZNF638 /// ZNF638-IT1 / RFU, PANK3 / Fold change vs veh, PANK3 / RFU, SH3YL1 / Fold change vs veh, SH3YL1 / RFU, ZEB2 / Fold change vs veh, ZEB2 / RFU, NRIP1 / Fold change vs veh, NRIP1 / RFU, PTTG1IP / Fold change vs veh, PTTG1IP / RFU, CAPN2 / Fold change vs veh, CAPN2 / RFU, MED14 / Fold change vs veh, MED14 / RFU, SNORA58 / Fold change vs veh, SNORA58 / RFU, C1orf63 / Fold change vs veh, C1orf63 / RFU, LRRFIP1 / Fold change vs veh, LRRFIP1 / RFU, NDUFAF7 / Fold change vs veh, NDUFAF7 / RFU, SLC12A2 / Fold change vs veh, SLC12A2 / RFU, IBTK / Fold change vs veh, IBTK / RFU, ESF1 / Fold change vs veh, ESF1 / Fold change vs veh, TMEM50B / RFU, TAOK1 / Fold change vs veh, TAOK1 / RFU, ACBD3 / Fold change vs veh, ACBD3 / RFU, TMA16 / Fold change vs veh, TMA16 / RFU, RWDD3 / Fold change vs veh, RWDD3 / RFU, BCAT1 / Fold change vs veh, BCAT1 / RFU, EDEM3 / Fold change vs veh, EDEM3 / RFU, TMEM33 / Fold change vs veh, TMEM33 / RFU, WDR75 / Fold change vs veh, WDR75 / RFU, AHCTF1 / Fold change vs veh, AHCTF1 / RFU, TFRC / Fold change vs veh, TFRC / RFU, ZDHHC17 / Fold change vs veh, ZDHHC17 / RFU, NOM1 / Fold change vs veh, NOM1 / RFU, ARL8B / Fold change vs veh, ARL8B / RFU, ZBTB11 / Fold change vs veh, ZBTB11 / RFU, TAMM41 / Fold change vs veh, TAMM41 / RFU, KIAA1704 /// LOC100996395 / Fold change vs veh, KIAA1704 /// LOC100996395 / RFU, ING1 / Fold change vs veh, ING1 / RFU, TRMT61B / Fold change vs veh, TRMT61B / RFU, FUBP3 / Fold change vs veh, FUBP3 / RFU, TP53 / Fold change vs veh, TP53 / RFU, TNKS2 / Fold change vs veh, TNKS2 / RFU, ZFP14 / Fold change vs veh, ZFP14 / RFU, ACTR2 / Fold change vs veh, ACTR2 / RFU, PPP3R1 / Fold change vs veh, PPP3R1 / RFU, PIK3R1 / Fold change vs veh, PIK3R1 / RFU, HNRNPA1 / Fold change vs veh, HNRNPA1 / RFU, RNF170 / Fold change vs veh, RNF170 / RFU, ZNF28 / Fold change vs veh, ZNF28 / RFU, RNGTT / Fold change vs veh, RNGTT / RFU, OGT / Fold change vs veh, OGT / RFU, BRD1 / Fold change vs veh, BRD1 / RFU, MARS / Fold change vs veh, MARS / RFU, ZNF655 / Fold change vs veh, ZNF655 / RFU, FAHD1 / Fold change vs veh, FAHD1 / RFU, BDP1 / Fold change vs veh, BDP1 / RFU, LRRCC1 / Fold change vs veh, LRRCC1 / RFU, ARID1A / Fold change vs veh, ARID1A / RFU, ZNF146 / Fold change vs veh, ZNF146 / RFU, ZNF330 / Fold change vs veh, ZNF330 / RFU, GPN3 / Fold change vs veh, GPN3 / RFU, C9orf123 / Fold change vs veh, C9orf123 / RFU, N4BP2L2 / Fold change vs veh, N4BP2L2 / RFU, ARFIP1 / Fold change vs veh, ARFIP1 / RFU, FAM179B / Fold change vs veh, FAM179B / RFU, BCL10 / Fold change vs veh, BCL10 / RFU, UHRF1BP1L / Fold change vs veh, UHRF1BP1L / RFU, BET1 / Fold change vs veh, BET1 / RFU, CNOT2 / Fold change vs veh, CNOT2 / RFU, ZNF268 / Fold change vs veh, ZNF268 / Fold change vs veh, ZNF507 / RFU, DGCR2 / Fold change vs veh, DGCR2 / RFU, WDSUB1 / Fold change vs veh, WDSUB1 / Fold change vs veh, HSP90B1 /// MIR3652 / RFU, ADSS / Fold change vs veh, ADSS / RFU, GK / Fold change vs veh, GK / RFU, ZNF148 / Fold change vs veh, ZNF148 / RFU, TAF9 / Fold change vs veh, TAF9 / RFU, SLC1A5 / Fold change vs veh, SLC1A5 / RFU, SLMO2 / Fold change vs veh, SLMO2 / RFU, ABCC4 / Fold change vs veh, ABCC4 / RFU, LOC101060439 /// RAP1B / Fold change vs veh, LOC101060439 /// RAP1B / RFU, RFX7 / Fold change vs veh, RFX7 / RFU, GTPBP10 / Fold change vs veh, GTPBP10 / RFU, CNEP1R1 / Fold change vs veh, CNEP1R1 / RFU, BIVM-ERCC5 /// ERCC5 / Fold change vs veh, BIVM-ERCC5 /// ERCC5 / RFU, ILF3 / Fold change vs veh, ILF3 / RFU 11762660_at / Fold change /veh 11762660_at / RFU VCAN (11757783_s_at) / Fold change /veh VCAN (11757783_s_at) / RFU DDX43 (11728927_at) / Fold change /veh DDX43 (11728927_at) / RFU KRT8 (11758188_x_at) / Fold change /veh KRT8 (11758188_x_at) / RFU NKD1 (11759106_at) / Fold change /veh NKD1 (11759106_at) / RFU SRD5A1 (11742802_a_at) / Fold change /veh SRD5A1 (11742802_a_at) / RFU TPSAB1 /// TPSB2 (11721975_s_at) / Fold change /veh TPSAB1 /// TPSB2 (11721975_s_at) / RFU GSTM3 (11746129_a_at) / Fold change /veh GSTM3 (11746129_a_at) / RFU IL23R (11737362_x_at) / Fold change /veh IL23R (11737362_x_at) / RFU TMEM51 (11727254_a_at) / Fold change /veh TMEM51 (11727254_a_at) / RFU PIWIL2 (11732686_x_at) / Fold change /veh PIWIL2 (11732686_x_at) / RFU ORM1 (11744905_x_at) / Fold change /veh ORM1 (11744905_x_at) / RFU CCDC152 (11743942_at) / Fold change /veh CCDC152 (11743942_at) / RFU ECM1 (11717891_a_at) / Fold change /veh ECM1 (11717891_a_at) / RFU IL23R (11748794_a_at) / Fold change /veh IL23R (11748794_a_at) / RFU TNFAIP8L3 (11732012_x_at) / Fold change /veh TNFAIP8L3 (11732012_x_at) / RFU MBOAT4 (11741988_at) / Fold change /veh MBOAT4 (11741988_at) / RFU 11764193_at / Fold change /veh 11764193_at / RFU TMEM53 (11763286_at) / Fold change /veh TMEM53 (11763286_at) / RFU MAGEB2 (11727129_at) / Fold change /veh MAGEB2 (11727129_at) / RFU TMEM200A (11744735_a_at) / Fold change /veh TMEM200A (11744735_a_at) / RFU CCDC152 (11751479_a_at) / Fold change /veh CCDC152 (11751479_a_at) / RFU FAM211A (11726209_a_at) / Fold change /veh FAM211A (11726209_a_at) / RFU RGS16 (11746705_a_at) / Fold change /veh RGS16 (11746705_a_at) / RFU VCAN (11755009_s_at) / Fold change /veh VCAN (11755009_s_at) / RFU RHOB (11743442_s_at) / Fold change /veh RHOB (11743442_s_at) / RFU RGS16 (11720943_a_at) / Fold change /veh RGS16 (11720943_a_at) / RFU RGS16 (11720944_at) / Fold change /veh RGS16 (11720944_at) / RFU, VPS4B / Fold change vs veh, VPS4B / RFU, CREB1 / Fold change vs veh, CREB1 / RFU, DNAJC13 / Fold change vs veh, DNAJC13 / RFU, GNAQ / Fold change vs veh, GNAQ / RFU, CDK5R1 / Fold change vs veh, CDK5R1 / RFU, ZRANB3 / Fold change vs veh, ZRANB3 / RFU, CUL4A / Fold change vs veh, CUL4A / RFU, CCNY / Fold change vs veh, CCNY / RFU, UFL1 / Fold change vs veh, UFL1 / RFU, COG3 / Fold change vs veh, COG3 / RFU, DIAPH2 / Fold change vs veh, DIAPH2 / RFU, SKA2 / Fold change vs veh, SKA2 / RFU, AFF3 / Fold change vs veh, AFF3 / RFU, LMF1 / Fold change vs veh, LMF1 / RFU, IPO11 / Fold change vs veh, IPO11 / RFU, DFFB / Fold change vs veh, DFFB / RFU, FOXP1 / Fold change vs veh, FOXP1 / RFU, CARD8 / Fold change vs veh, CARD8 / RFU, STRN3 / Fold change vs veh, STRN3 / RFU, ADK / Fold change vs veh, ADK / RFU, RASSF2 / Fold change vs veh, RASSF2 / RFU, WIPF1 / Fold change vs veh, WIPF1 / RFU, LARP1B / Fold change vs veh, LARP1B / RFU, RASA1 / Fold change vs veh, RASA1 / RFU, RB1 / Fold change vs veh, RB1 / RFU, PPFIA1 / Fold change vs veh, PPFIA1 / RFU, MAT2A / Fold change vs veh, MAT2A / RFU, CCT5 / Fold change vs veh, CCT5 / RFU, WDR92 / Fold change vs veh, WDR92 / RFU, CUX1 / Fold change vs veh, CUX1 / RFU, TTC7A / Fold change vs veh, TTC7A / RFU, TMEM135 / Fold change vs veh, TMEM135 / RFU, DEPTOR / Fold change vs veh, DEPTOR / RFU, CPM / Fold change vs veh, CPM / RFU, DNAJB6 / Fold change vs veh, DNAJB6 / RFU, CACNA2D3 / Fold change vs veh, CACNA2D3 / RFU, DTX4 / Fold change vs veh, DTX4 / RFU, TFCP2 / Fold change vs veh, TFCP2 / RFU, GMCL1 /// GMCL1P1 / Fold change vs veh, GMCL1 /// GMCL1P1 / RFU, AEBP2 / Fold change vs veh, AEBP2 / RFU, SNHG1 /// SNORD22 /// SNORD25 /// SNORD26 /// SNORD27 /// SNORD28 /// SNORD29 /// SNORD31 / Fold change vs veh, SNHG1 /// SNORD22 /// SNORD25 /// SNORD26 /// SNORD27 /// SNORD28 /// SNORD29 /// SNORD31 / Fold change (Aza/veh), C12orf56 (ProbeSet 11735607_a_at) / Fold change (ACY-1035/veh), C12orf56 (ProbeSet 11735607_a_at) / Fold change (Aza/veh), FGFR1OP (ProbeSet 11751329_s_at) / Fold change (ACY-1035/veh), FGFR1OP (ProbeSet 11751329_s_at) / Fold change (Aza/veh), VPS36 (ProbeSet 11739960_a_at) / Fold change (ACY-1035/veh), VPS36 (ProbeSet 11739960_a_at) / RFU SYPL1 (11715823_x_at) / Fold change /veh SYPL1 (11715823_x_at) / RFU IGFBP7 (11715501_s_at) / Fold change /veh IGFBP7 (11715501_s_at) / RFU REEP3 (11722064_at) / Fold change /veh REEP3 (11722064_at) / RFU IGLL1 (11728026_x_at) / Fold change /veh IGLL1 (11728026_x_at): dose or concentration left out as unconfirmed
# Details: MV-4-11 cells, 48 hours
compound,measurement,value
Nc1ncn([C@@H]2O[C@H](CO)[C@@H](O)[C@H]2O)c(=O)n1 [azacitidine],Fold change /veh EBF3 (11725865_a_at),1.12
